Experimental data as given in publication PMC5131915, “Platinum(II) Iodido Complexes of 7-Azaindoles with Significant Antiproliferative Effects: An Old Story Revisited with Unexpected Outcomes” (PLoS ONE, 2016).

Experiments:
[1] = Hydrophobicity studies (logP determination), octanol/water, ICP-MS; assay type: physicochemical; settings: octanol/water (0.2 M KI)
Method: Complexes 4 and 6 (1 mmol) were ultrasonicated for 15 min in 10 mL of OSW, centrifuged and supernatants were collected. Aliquots (5 mL) of the obtained OSW solutions of complexes 4 and 6 were added to WSO (5 mL) and shaken for 2 h at ambient temperature. After that, the mixtures were centrifuged and aqueous layer was separated carefully. The platinum concentration was determined from OSW aliquots taken before ([Pt]OSWb) and after ([Pt]OSWa) partition by ICP-MS (ICP-MS spectrometer 7700x, Agilent) with the obtained values corrected for the adsorption effects. logP = log([Pt]WSO/[Pt]OSWa) equation was used for the partition coefficients calculation; [Pt]WSO = [Pt]OSWb−[Pt]OSWa. The experiments were conducted in triplicate.

MCL-1L (37 kDa) = assay: Ex vivo Western blot of tumour tissues, MCL-1L; assay type: in vivo, mice; settings: pooled tumour samples
Method: (§1) Frozen tumour samples were homogenized by a bench blender IKA DI25 (IKA-Werke, Germany) in the presence of a lysis buffer [cOmplete Protease Inhibitor Cocktail (Roche, Germany), 50 mM Tris-HCl pH 7.5, 1 mM EGTA, 1 mM EDTA, 1 mM sodium orthovanadate, 50 mM sodium fluoride, 5 mM sodium pyrophosphate, 270 mM sucrose, 0.5% (v/v) Triton X-100]. Subsequently, the blended samples were centrifuged at 9.000 g at 4°C for 15 min. The supernatants were collected and the protein concentration was measured by the Brandford’s method using the Brandford reagent (Amresco, USA) according to the manufacturer’s manual. The measured samples were stored at -80°C for the following experiments.
(§2) The expression of caspase 3, MCL-1, p53, and β-actin as loading control were evaluated by Western blot analysis and immunodetection. Lysates were mixed with a denaturing loading dye [250 mM Tris-HCl pH 6.8, 5% (v/v) β-mercaptoethanol, 10% (w/v) sodium dodecyl sulfate, 30% (v/v) glycerol, 0.04% (w/v) bromophenol blue], heated for 5 min at 70°C. To eliminate intra-species variability, and to obtain the same amount of proteins from all experimental groups, all samples from one group of animals were pooled together and loaded onto a 15% polyacrylamide denaturing gel. The final protein amount was 50 μg per well. After protein separation in the gel, they were transferred on the Immun-Blot polyvinylidene difluoride membrane 0.2 μm (Bio-Rad, USA). Then, the membrane was blocked by 5% (w/v) BSA in TBST [10 mM Tris-HCl pH 7.5, 150 mM NaCl, 0.1% (v/v) Tween-20]. […] HRP was detected by Clarity Western ECL Substrate (Bio-Rad, USA) using chemiluminescent documentation system Syngene PXi-4 (UK).

[2] = Hydrolytic stability by 1H NMR; assay type: physicochemical; settings: 20% DMF-d7/80% D2O, after 48 h
p53 = assay: Ex vivo Western blot of tumour tissues, p53; assay type: in vivo, mice; settings: pooled tumour samples
Method: as §1, §2

[3] = system: Caco-2 colorectal carcinoma cells; assay: In vitro cytotoxicity testing (MTT assay), Caco-2; assay type: cell-based, human; settings: for IC50: 24 h drug exposure, no recovery, MTT, read-out: IC50±SD, Caco-2; for selectivity factor IC50(Hep)/IC50(cancer cell line): Caco-2
Method: All cell lines were grown as adherent monolayers at 37°C and 5% CO2 in a humidified atmosphere.
The MTT assay was used to determine the cell viability; MTT = 3-(4,5-dimethylthiazol-2-yl)-2,5-diphenyltetrazolium bromide. A concentration of the formed dye was evaluated spectrophotometrically at 540 nm (TECAN, Schoeller Instruments LLC).
The data were expressed as the percentage of viability, where 100% and 0% represents the treatments with negative and positive controls, respectively. The data from the cancer cells were acquired from three independent experiments (conducted in triplicate) using cells from different passages. The resulting IC50 values (μM) were calculated from viability curves and the results are presented as arithmetic mean±SD.

[4] = system: cisplatin-sensitive HCT116 colon cancer cell line; set-up: method as in PMID 26226326; settings: cited from earlier work
[5] = system: cisplatin-resistant HCT116 colon cancer cell line; set-up: method as in PMID 26226326; settings: cited from earlier work

SMILES: Brc1cc[n+]([Pt-2]([I])([I])[n+]2ccc(Br)c3cc[nH]c32)c2[nH]ccc12 [Complex 6, cis-[Pt(4Braza)2I2]]
- logP [1]: –0.07
- MCL-1L level in tumour tissue (MCL-1L (37 kDa)): negligible effect
- fraction of complex hydrolyzed [2]: ~10%
- p53 level in tumour tissue (p53): did not affect
- IC50 [3]: 0.4 ± 0.3 µM
- selectivity factor IC50(Hep)/IC50(cancer cell line) [3]: ~10

SMILES: N.N.[Cl][Pt][Cl] [Cisplatin, cisplatin, reference compound]
- IC50 [4]: 7.6 µM
- IC50 [5]: 22 µM

SMILES: Cc1cc2c(Cl)cc[n+]([Pt-2]([I])([I])[n+]3ccc(Cl)c4cc(C)[nH]c43)c2[nH]1 [Complex 8, cis-[PtI2(2Me4Claza)2]]
- MCL-1L level in tumour tissue (MCL-1L (37 kDa)): considerably increased
- p53 level in tumour tissue (p53): attenuated
- IC50 [3]: 0.4 ± 0.2 µM
- selectivity factor IC50(Hep)/IC50(cancer cell line) [3]: ~24
